# Measurements reported in patent publication US20080274121A1, “Inhibition of Angiogenesis by Mithramycin” (priority 2007, published 2008).
# Tests used:
# [1] = test system: Sp1 recruitment into the Sp1 promoter; experiment: ChIP assay, PANC-1 cells in vitro; type: cell-based, human; conditions: 100 μg/ml BVZ or 0.1 μM MIT, 2 days
# Procedure: FIG. 15. Effects of treatment with BVZ and MIT on Sp1 recruitment into the Sp1 promoter in human pancreatic cancer cells in vitro and in vivo. A, schematic structures of the minimal Sp1 promoters. The nucleotide positions and sequences of Sp1-binding sites and polymerase chain reaction forward and reverse primers flanking those sites for ChIP assay are shown. B, Sp1 and VEGF promoter reporter constructs were transfected into PANC-1 cells in triplicate and incubated for 12 hours. The cells were then incubated for another 24 hours in a medium alone or a medium containing 100 μg/ml BVZ or 0.1 μM MIT. Total protein lysates were harvested from the cell cultures for measurement of Sp1 and VEGF promoter activity using a luciferase assay kit. The relative Sp1 and VEGF promoter activities were assessed, and the activity in treated groups was expressed as the fold change of that in their respective control groups. C and D, chromatin was extracted from (C) PANC-1 cells that were incubated in vitro for 2 days in a medium alone or a medium containing 100 μg/ml BVZ or 0.1 μM MIT and (D) tumors formed by PANC-1 cells in nude mice that received treatment as described in FIG. 2A. […]
# [2] = test system: Sp1, VEGF, CD31 (MVD); experiment: Gene expression and microvessel formation in PANC-1 tumor tissues; type: in vivo, nude mice
# Procedure: FIG. 13. Analysis of gene expression and microvessel formation in tumor tissues. The tumor tissues described in FIG. 2 were collected and processed as described in Materials and Methods. A, total protein lysates were harvested from tumor tissues, and the level of protein expression was determined using Western blot analysis. Equal protein-sample loading was monitored by probing the same membrane filter with an anti-β-actin antibody. NS, nonspecific. B, the levels of Sp1 and VEGF expression were quantitated and expressed as fold change. C, MVD was quantitated according to CD31 staining. D, immunohistochemical staining was performed using specific antibodies against Sp1, VEGF, and CD31. Representative photos of the stains are shown.
# Western blot analysis. Whole-cell lysates were prepared from human pancreatic cancer cell lines and tissues (23). Standard Western blotting was performed using polyclonal rabbit antibodies against human and mouse Sp1, VEGF, and EGFR (Santa Cruz Biotechnology, Santa Cruz, Calif.) and the anti-rabbit IgG antibody, a horseradish peroxidase-linked F(ab′)2 fragment obtained from a donkey (Amersham, Arlington Heights, Ill.). Equal protein-sample loading was monitored by probing the same membrane filter with antibodies against anti-β-actin or glyceraldehyde-3-phosphate dehydrogenase (GAPDH) (23). The probe proteins were detected using the Amersham enhanced chemiluminescence system according to the manufacturer's instructions.
# Immunohistochemical analysis and quantification of tumor MVD. For CD31 staining, frozen tissue sections (5 μm thick) were fixed in acetone. Endogenous peroxidase in the specimens was blocked using 3% hydrogen peroxide in phosphate-buffered saline (PBS) for 12 minutes. […] For quantification of tumor MVD, vessels on each section were counted in five high-power fields (magnification, ×200 [×20 objective and ×10 ocular]) as described previously (41). […]
# [3] = test system: BON-1 cells; experiment: BON-1 carcinoid subcutaneous xenograft
# Procedure: H727 and BON-1 cells were injected into the subcutis of nude mice (n=5). When tumors reached around 4 mm in diameter, the animals received different doses of MIT (0.10 [M-10], 0.20 [M-20], and 0.40 [M-40] mg/kg) via intraperitoneal injection twice a week. Tumors were measured once every week, and at each measurement, the mean±standard deviation (SD) tumor volume in the five mice in each group was calculated (A).
# H727 and BON-1 cells were injected subcutaneously into nude mice. […] A. Tumors were measured once every week, and at each measurement, the mean±SD tumor volume in the five mice in each group was calculated. B. Mouse body weights were measured. The asterisks indicate the statistical significance (P<0.01) in a comparison between the treated and respective control groups.
# Mithramycin-A (MIT, 1 mg/vial crystal powder; lot 055K4011) was purchased from Sigma Chemical Co. (St. Louis, Mo.) and diluted in sterile water. BVZ (25 mg/ml; NDC 50242-060-01) from Genentech, Inc. (South San Francisco, Calif.) was purchased. For animal experiments, MIT (0.1 to 0.4 mg/kg body weight) and BVZ (25 to 100 μg/mouse) were administered by intraperitoneal or subcutaneous injections twice a week or as otherwise stated.
# Female athymic BALB/c nude mice were purchased from The Jackson Laboratory (Bar Harbor, Me.). The mice were housed in laminar flow cabinets under specific pathogen-free conditions and used when they were 8 weeks old.
# H727 and BON-1 tumor cells were injected into the subcutis of mice as described in the Materials and Methods. […] Moreover, the residual tumors were harvested and angiogenesis was assessed by CD31 staining.
# Synergistic antitumor effects of BVZ and MIT in human LGNET model. […] To test this hypothesis, we determined whether modulating Sp1 expression and/or activity impacts the efficacy of anti-angiogenic treatment of BVZ. […]
# H727 and BON-1 cells were injected subcutaneously into nude mice and then administered treatment to them as described in FIG. 20. We monitored animal survival daily until termination of the experiment 160 days after tumor-cell injection.
# [4] = test system: PANC-1 cells; experiment: PANC-1 subcutaneous xenograft, tumor volume and body weight; type: in vivo, nude mice; conditions: BVZ 25 μg, MIT 0.10 mg/kg, or B+M
# Procedure: FIG. 11. Synergistic antitumor effects of treatment with BVZ and MIT in xenograft models of human pancreatic cancer. […] C, representative tumor sizes in each group of BxPC3 model mice.
# Next, we performed experiments using both BxPC3 and PANC-1 tumor cell models in which we administered PBS, BVZ (25 μg), MIT (0.10 mg/kg), or B+M to a group of nude mice.
substance,measurement,setting,value
bevacizumab [BVZ],Sp1 recruitment to its own promoter,[1],did not affect Sp1 recruitment
same,MVD,"[2]; CD31 staining, low-dose BVZ or MIT alone",did not significantly reduce MVD
same,"expression of platelet-derived growth factor, IGF-R, and EGFR in tumor tissue","[2]; Western blot, data not shown",upregulated the expression of other proangiogenic molecules
same,Sp1 and VEGF expression in tumor tissue,"[2]; Western blot, mice treated with PBS, BVZ, MIT, or B+M (low doses)",increased expression of Sp1 and its downstream molecule VEGF
same,antitumor activity at low dose,"[3]; BVZ 25 μg, MIT 0.10 mg/kg, alone or combined, i.p. twice a week",marginal antitumor activity
same,body weight,[3]; BVZ alone,no discernable effects on body weight
same,animal survival,"[3]; compared with PBS, 160 days",slightly increased survival rate
same,antitumor activity at low dose,[4],marginal antitumor activity
